This is an account of results in US8945540B2, “Compositions for enhancing the antibacterial activity of myeloperoxidase and methods of use thereof” (Exoxemis, Inc., priority 2008, dated 2015).

In assay [1] the test system is Staphylococcus aureus. Put plainly: Control: microbicidal activity of the amino acid or analogue alone (no glucose, MPO, glucose oxidase) in the presence of blood. To be noted: amino acid alone 5 mM, MPO 0, GO 0, no glucose, blood, without replication; for log reduction at 5000 µM: Staphylococcus aureus, 1 h, read-out: Log Reduction 60 min. The class given is cell-based. From the text:
As a control to determine the microbicidal activity of the amino acids alone, the foregoing procedure was followed without replication, except in the absence of glucose, MPO, and glucose oxidase.

The test system of assay [2] is Staphylococcus aureus. Put plainly: Microbicidal activity of the myeloperoxidase system (p-MPO, glucose oxidase, glucose) with amino acids in the presence of blood, CFU plate counts; synergy determination from these CFU. As to conditions: for Average Viability CFU/ml 60 min / Log 10 (CFU + 1) Survivors 60 min / Log Reduction 60 min: amino acid 5 mM (none: 0 mM), MPO 38 U/ml, GO 33.3 U/ml; for Average Viability CFU/ml 50 min / Log Reduction 50 min: MPO 4.7 U/ml, GO 4.2 U/ml; for Predicted vs Actual: actual CFU as % of predicted value; for Predicted Average of Amino Acids: average of CFU of the individual D- and L-enantiomers; for Actual CFU: racemic mixture, standard conditions of Example 5. The class given is cell-based. As to the method:
Bacterial suspensions, specifically Staphylococcus aureus in this example, were prepared by the shake flask method to achieve late log to early stationary phase growth. Bacteria were grown 24 hours in trypticase soy broth (TSB) at 35° C. The cultures were centrifuged at 4,000 rpm for 10 minutes and the supernatants removed. The pellet was collected and washed twice with sterile 0.9% normal saline (NS). The washed microorganisms were suspended and diluted with normal saline to a 3 McFarland standard, i.e., approximately 10^9 bacteria colony forming units (CFU) per mL. Actual colony counts are confirmed by serial dilutions (10^−1 to 10^−5 or 10^−6) plated on TSA and incubated overnight at 35° C. To obtain an approximate final working target inoculum of 10^7 CFU/mL, 15 microliters of organisms per mL of final reaction mixture are used.
Glucose oxidase (GO) from Aspergillus Niger was purchased from Biozyme, Inc., UK, Cat #GO3A, 270 U/mg). Porcine Myeloperoxidase (p-MPO) (Exoxemis, Inc., Little Rock, Ark. U.S.A., 375 U/mg). Sterile stock solutions of D-glucose and sodium chloride were prepared and used at a final concentration of 150 mM each. L-Lysine hydrochloride (Spectrum Chemical Cat #L1142) was prepared as a 100 mM stock solution. Catalase (Sigma, Cat #C-40) was prepared as a 1% stock solution in sterile 0.9% normal saline. Blood was collected by venipuncture and used as whole blood within the same day.
Staphylococcus aureus were used to give a final target concentration of 2-3×10^7 CFU (7.4 log 10) per mL and venous whole blood was used to give a final concentration of 3%. Glucose was added to the reaction mixtures to a final concentration of 150 mM, which initiated the microbicidal reaction. The final volume of the reaction mixtures was 1 mL. The reactions were allowed to run from 30 minutes to 2 hours, as needed, at room temperature or at 37° C. in a dry bath. At the specified time points the reaction mixtures were treated with 100 microliters of a catalase solution, containing a minimum of 100 units/μL, to consume remaining peroxide and terminate the oxidative killing. Serial dilution plate counts were performed from the contents of each vial in sterile saline and inoculated onto trypticase soy agar (TSA) for quantitative culture. Plates were then incubated at 37° C. and counts taken at 24 hours. […] The results are shown in Table 1, as the average of 2 replicates.
The amino acids alone, in the absence of MPO were tested to rule out their microbicidal activity. The results are shown in Table 2 to Table 6, as the average of 2 replicates.
The amino acid analogues alone, in the absence of MPO, were tested to rule out their microbicidal activity. […]
The effect of two-way combinations of individual amino acids with L-isoleucine, as potential enhancing agents, for MPO microbicidal action in the presence of blood, was therefore examined by following the procedure of Example 5.
The Actual CFU observed for the pair is then divided by the Predicted CFU and multiplied by 100 to calculate the % of Predicted value. This value is then to be compared to the threshold value, discussed in the next section, to determine whether the pair are synergistic, antagonistic, or additive.
Calculation of appropriate threshold values for determination of synergism and antagonism was based upon the variability of replicated CFU survivor measures.

The mark [3] stands for this setting: MPO 100 μg/mL, AA 20 mM, 30 min.
The mark [4] stands for this setting: MPO 100 μg/mL, AA 20 mM, 60 min.
The mark [5] stands for this setting: Table 13, single amino acid 2.5 mM, in the presence of blood, 50 min.
Setting [6] is: Table 11, single amino acid 2.5 mM, in the presence of blood, 50 min.
[7] abbreviates: Table 14, single amino acid 2.5 mM, in the presence of blood, 50 min.
Where [8] appears, read: Table 19, amino acid (racemic, L- or D-form) 2.5 mM, 50 min.
[9] abbreviates: single amino acid 2.5 mM, blood.

Each structure is given as a SMILES string.

For the compound `NC(=O)C[C@H](N)C(=O)O` [L-Asparagine], in the assay with Staphylococcus aureus [1], the log reduction at 5000 µM came out at 0 and the “Average Viability CFU/ml 60 min” value stood at 21800000 CFU/ml. In addition, in the assay with Staphylococcus aureus [2] (Table 3, blood), the “Average Viability CFU/ml 60 min” value was 5950000 CFU/ml, the “Log 10 (CFU + 1) Survivors 60 min” value was found to be 6.8 and the “Log Reduction 60 min” value stood at 0.6.
As to `CSCC[C@H](N)C(=O)O` [L-Methionine], in the assay on Staphylococcus aureus [1], the log reduction at 5000 µM stood at 0.1 and the “Average Viability CFU/ml 60 min” value was 19800000 CFU/ml. Also, in the assay with Staphylococcus aureus [2] (Table 2, blood), the “Average Viability CFU/ml 60 min” value was found to be 6600000 CFU/ml, the “Log 10 (CFU + 1) Survivors 60 min” value came out at 6.8 and the “Log Reduction 60 min” value is reported as 0.6.
Take `C[C@@H](N)C(=O)O` [D-Alanine]: the log reduction at 5000 µM with Staphylococcus aureus [1] was determined as 0. The “Average Viability CFU/ml 60 min” value was 19600000 CFU/ml with Staphylococcus aureus [1] and 0 CFU/ml in the assay with Staphylococcus aureus [2] (Table 3, blood). The “Log 10 (CFU + 1) Survivors” value in the assay with Staphylococcus aureus [2] (MPO 25 μg/mL, AA 5 mM, 30 min) is listed as 7.3; in the assay on Staphylococcus aureus [2] (MPO 25 μg/mL, AA 5 mM, 60 min), 3.7; in the assay on Staphylococcus aureus [2] (MPO 25 μg/mL, AA […], 30 min), 7.3; with Staphylococcus aureus [2] (MPO 25 μg/mL, AA […], 60 min), 6.7; in the assay on Staphylococcus aureus [2] (MPO 100 μg/mL, AA 5 mM, 30 min), 6.8; in the assay with Staphylococcus aureus [2] (MPO 100 μg/mL, AA 5 mM, 60 min), 0.6. Also, the “Log 10 (CFU + 1) Survivors” value in the assay with Staphylococcus aureus [2] (setting [3]) was 7.3; in the assay with Staphylococcus aureus [2] (setting [4]), 0.0. The “Log 10 (CFU + 1) Survivors 60 min” value with Staphylococcus aureus [2] (Table 3, blood) was determined as 0.0. The “Log Reduction 60 min” value with Staphylococcus aureus [2] (Table 3, blood) was 7.3. In the assay with Staphylococcus aureus [2] (setting [5]), the “Average Viability CFU/ml 50 min” value is listed as 1900000 CFU/ml. The “Log Reduction 50 min” value in the assay with Staphylococcus aureus [2] (setting [5]) is 1.1.
For the compound `COC(=O)[C@@H](C)N` [D-Ala methyl ester], the “Average Viability CFU/ml 50 min” value worked out at 9500000 CFU/ml in the assay with Staphylococcus aureus [2] (setting [6]) and 8850000 CFU/ml with Staphylococcus aureus [2] (setting [7]). Further, the “Log Reduction 50 min” value in the assay on Staphylococcus aureus [2] (setting [6]) and with Staphylococcus aureus [2] (setting [7]) was 0.5 throughout.
Turning to `CC(C)CC(N)C(=O)O` (racemic) [d,l-Leucine], in the assay with Staphylococcus aureus [2] (setting [8]), the “Average Viability CFU/ml 50 min” value is reported as 650000 CFU/ml and the “Log Reduction 50 min” value is 1.6. In addition, in the assay on Staphylococcus aureus [2], the “Predicted vs Actual” value was 310%, the “Predicted Average of Amino Acids” value is listed as 209500 CFU and the “Actual CFU” value was determined as 650000 CFU.
Take `COC(=O)[C@@H](C)N` [D-Alanine methyl ester]: the “Log 10 (CFU + 1) Survivors” value in the assay on Staphylococcus aureus [2] (MPO 25 μg/mL, AA 5 mM, 30 min) is 0.0; with Staphylococcus aureus [2] (MPO 25 μg/mL, AA 5 mM, 60 min), 0.0; in the assay with Staphylococcus aureus [2] (MPO 25 μg/mL, AA […], 30 min), 0.0; in the assay on Staphylococcus aureus [2] (MPO 25 μg/mL, AA […], 60 min) it was 0.0; in the assay with Staphylococcus aureus [2] (MPO 100 μg/mL, AA 5 mM, 30 min), 0.0; in the assay on Staphylococcus aureus [2] (MPO 100 μg/mL, AA 5 mM, 60 min), 0.0. Also, the “Log 10 (CFU + 1) Survivors” value in the assay on Staphylococcus aureus [2] (setting [3]) and with Staphylococcus aureus [2] (setting [4]) was 0.0 throughout. Also, the “Average Viability CFU/ml 50 min” value in the assay on Staphylococcus aureus [2] (setting [9]) is recorded as 5450000 CFU/ml. For the same compound, the “Log Reduction 50 min” value in the assay on Staphylococcus aureus [2] (setting [9]) was 0.6.
For the compound `CC(C)C(N)C(=O)O` (racemic) [d,l-Valine], in the assay with Staphylococcus aureus [2] (setting [8]), the “Average Viability CFU/ml 50 min” value stood at 685000 CFU/ml and the “Log Reduction 50 min” value is 1.5. Moreover, in the assay with Staphylococcus aureus [2], the “Predicted vs Actual” value is given as 187%, the “Predicted Average of Amino Acids” value was 367250 CFU and the “Actual CFU” value was 685000 CFU.
For `CC[C@H](C)[C@H](N)C(=O)O` (racemic) [d,l-Isoleucine], in that order: 64000 CFU/ml, 2.7, 39%, 162667 CFU and 64000 CFU.
As for `NC(Cc1ccccc1)C(=O)O` (racemic) [d,l-Phenylalanine], in the assay with Staphylococcus aureus [2] (setting [8]), the “Average Viability CFU/ml 50 min” value was 900000 CFU/ml and the “Log Reduction 50 min” value was 1.4. Moreover, in the assay on Staphylococcus aureus [2], the “Predicted vs Actual” value is 9%, the “Predicted Average of Amino Acids” value is 9950000 CFU and the “Actual CFU” value was found to be 900000 CFU. Further, the “synergistic, antagonistic or additive” value in the assay with Staphylococcus aureus [2] (from % of predicted value) is “synergistic (synergistic combinations with responses less than 25% of the predicted value)”.
